We go through nine compounds from ChEMBL document CHEMBL1201862, “PubChem BioAssay data set” (2004).

The subject of test [1] is Jurkat. Description: SAR Analysis of small molecule inhibitors of […] specific antigen receptor-induced NF-kB activation in a Jurkat cell line using a luminescence assay - Set 3. [Related pubchem assays (depositor defined):AID435022, AID435025, AID465]. The test is classed as functional, cell-based. The following applies: Homo sapiens.
Test [2] in a line: HEK-293T cell viability reduction – luminescence, B-cell screen hits, cytotoxicity control for BCR NF-kB inhibitor project, dose response (AID 489021).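 Further: HEK-293T cells carrying an NF-kB luciferase reporter; cells exposed to compound for about 14 hours before viability readout.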 The test is classed as functional, cell-based.
In test [3] the test system is HEK293. Description: SAR Analysis of small molecule inhibitors of B-cell specific antigen receptor-induced NF-kB activation in a HEK-293T cell line using a luminescence assay - Set 2. [Related pubchem assays (depositor defined):AID435022, AID435025, AID489021]. Type of test: functional, cell-based. To be noted: Homo sapiens.
The subject of test [4] is HEK293. Description: HEK293T cell viability loss, resazurin readout – resazurin fluorescence, cytotoxicity control for NF-kB activator project, SAR follow-up (AID 493251). Type of test: functional, cell-based. The following applies: Homo sapiens, HEK293. (Alamar Blue is a resazurin reagent that responds to reducing activity.)
Test [5] can be described thus: Luminescence Cell-Based Dose Retest to Confirm Inhibitors of Cancer Stem Cells. [Related pubchem assays (depositor defined):AID2717, AID2721]. The test is classed as functional. To be noted: Homo sapiens.
Test [6] is described as follows: viability loss of HMLE_sh_eGFP cells – cell-based, luminescence, counter-screen for HMLE_sh_ECad selective toxicity project, dose response (AID 463074).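 Further: HMLE human mammary epithelial cells expressing control shRNA against eGFP.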 The test is classed as functional, Homo sapiens. On the technique in general: The purpose of a counterscreen is to sort out artefacts and off-target activity.
Test [7] has as its target Potassium voltage-gated channel subfamily KQT member 2 (Rattus norvegicus, UniProt O88943). Briefly: rat KCNQ2 current potentiators – automated patch clamp, KCNQ2-CHO cells, SAR follow-up (AID 493113). The test is classed as functional.
The subject of test [8] is HEK293. Briefly: cells. The following applies: Homo sapiens.
For test [9], the system named is HEK293. Briefly: cells. The following applies: Homo sapiens. The source holds these as a separate data set.
The target of test [10] is Sphingosine 1-phosphate receptor 1 (Homo sapiens, UniProt P21453). Briefly: Fluorescence-based counterscreen assay for S1P4 agonists: Cell-based dose response high throughput screening assay to identify agonists of the Sphingosine 1-Phosphate Receptor 1 (S1P1). [Related pubchem assays (depositor defined):AID1509, AID1523, AID1801, AID463107, AID463118, AID463119, AID463122, AID463123, AID463129, AID463225, AID504400, AID504460]. The test is classed as functional.

A further test has as its target T1, Streptokinase A (Streptococcus pyogenes serotype M1, UniProt P10520).
T1 sequence (P10520 whole entry): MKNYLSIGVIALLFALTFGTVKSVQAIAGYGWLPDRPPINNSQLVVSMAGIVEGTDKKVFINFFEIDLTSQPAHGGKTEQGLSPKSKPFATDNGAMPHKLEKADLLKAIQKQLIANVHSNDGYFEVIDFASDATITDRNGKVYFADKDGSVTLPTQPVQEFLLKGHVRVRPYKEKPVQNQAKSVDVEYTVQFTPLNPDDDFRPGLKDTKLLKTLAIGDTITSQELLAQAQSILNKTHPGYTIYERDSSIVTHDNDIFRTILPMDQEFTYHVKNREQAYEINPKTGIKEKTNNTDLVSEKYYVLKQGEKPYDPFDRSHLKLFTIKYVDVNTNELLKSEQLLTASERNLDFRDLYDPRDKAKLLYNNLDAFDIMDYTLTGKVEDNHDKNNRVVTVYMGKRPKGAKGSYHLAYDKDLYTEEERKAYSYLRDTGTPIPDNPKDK
Description: viability-normalized secreted streptokinase activity reduction – plasminogen activation absorbance, OD405, dose response (AID 1914).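 Further: secreted streptokinase activity via plasminogen activation per viability signal from cell pellet.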 Type of test: functional, Streptococcus pyogenes M1 GAS.

The next test deals with Streptococcus. Briefly: GAS UMAA2166 growth inhibition – luminescence, BacTiterGlo, counter-screen for streptokinase expression inhibitor project, dose response (AID 1915).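 Further: potency for reduction of bacterial viability or growth.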 The test is classed as functional, organism-based.
Test [11] concerns the target T2, Sphingosine 1-phosphate receptor 4 (Homo sapiens, UniProt O95977).
T2 sequence (O95977 whole entry): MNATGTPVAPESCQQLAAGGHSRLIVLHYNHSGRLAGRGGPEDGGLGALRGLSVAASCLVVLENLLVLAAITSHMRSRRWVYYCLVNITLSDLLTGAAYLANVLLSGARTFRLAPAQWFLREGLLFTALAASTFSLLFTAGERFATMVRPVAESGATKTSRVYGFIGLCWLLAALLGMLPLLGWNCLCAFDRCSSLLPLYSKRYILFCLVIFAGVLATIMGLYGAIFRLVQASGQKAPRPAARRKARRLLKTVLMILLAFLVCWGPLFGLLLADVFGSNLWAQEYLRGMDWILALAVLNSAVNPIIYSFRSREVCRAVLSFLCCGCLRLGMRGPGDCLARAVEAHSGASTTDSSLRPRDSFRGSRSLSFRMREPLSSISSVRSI
Description: Fluorescence dose response cell-based high throughput screening assay for agonists of the Sphingosine 1-Phosphate Receptor 4 (S1P4). [Related pubchem assays: 1509 (Primary screen.), 1523 (Confirmation screen in triplicates.)]. The test is classed as functional.

Test [12] deals with Neurotensin receptor type 1 (Homo sapiens, UniProt P30989). The test is classed as functional.
Test [13] in a line: viability of HCT116 lacking mutant beta-catenin – cell-based, human colon tumor, dose response (AID 1045).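 Further: HCT116 colon tumor cells with beta catenin knocked out; cells exposed to compound for 60 hours.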 Type of test: functional.
The target in test [14] is Sphingosine 1-phosphate receptor 2 (Homo sapiens, UniProt O95136). Briefly: Dose Response Cell Based Assay for Agonists of the S1P2 Receptor. [Related pubchem assays: 729, 736, 843 ]. The test is classed as functional.
Test [15] in a line: viability of PTEN-deleted HCT116 cells – cell-based, HCT116 PTEN knockout, dose response (AID 1047).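 Further: HCT116 colon tumor cells with PTEN knocked out; cells exposed to compound for 60 hours before readout; potency for loss of cell viability measured by luminescence.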 The test is classed as functional.
For test [16], the system named is Streptococcus sp. 'group A'. Briefly: Streptococcus pyogenes SK(-)GAS viability under kanamycin – luminescence, BacTiterGlo, confirmation, counter-screen for streptokinase expression inhibitor project, dose response (AID 1900). The test is classed as functional, organism-based.
In the next test the test system is Vero. Description: cells. The following applies: Chlorocebus sabaeus. Type of test: functional.
The nature of test [17]: viability loss in Vero cells – cytotoxicity control for Vif-APOBEC3G degradation inhibitor project, dose response (AID 1117358). Type of test: functional. The following applies: Vero.
Another test deals with T3, Protein Tat (Human immunodeficiency virus type 1 group M subtype B (isolate HXB2)(HIV-1), UniProt P04608).
T3 sequence (P04608 whole entry): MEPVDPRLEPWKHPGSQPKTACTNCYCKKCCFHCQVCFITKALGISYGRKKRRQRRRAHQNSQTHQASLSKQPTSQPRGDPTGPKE
Type of test: functional.

The subject of test [18] is Jurkat. Description: blockers of NF-kB activation in T cells – Jurkat, luciferase reporter, luminescence, B- and T-cell, dose response (AID 489004).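 Further: NF-kB luciferase reporter Jurkat cells stimulated with PMA plus ionomycin.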 The following applies: Homo sapiens. Type of test: functional, cell-based. Background: A reporter such as luciferase makes a cellular process visible.
Test [19] can be described thus: HEK-293T viability loss, compound-treated – cell-based, uHTS hits, cytotoxicity control for B/T-cell NF-kB inhibitor project, dose response (AID 489019).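 Further: IC50 reflects cytotoxicity as loss of cell viability.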 The test is classed as functional.
Test [20] has as its target Intestinal-type alkaline phosphatase (Mus musculus, UniProt P24822). Description: PubChem AID 488785. The test is classed as functional.
For test [21], the target named is Intestinal-type alkaline phosphatase (Homo sapiens, UniProt P09923). Briefly: inhibition of human intestinal alkaline phosphatase – biochemical, dose response (AID 488876). Type of test: functional.
The target in test [22] is T4, Alkaline phosphatase, tissue-nonspecific isozyme (Homo sapiens, UniProt P05186).
T4 sequence (P05186 whole entry): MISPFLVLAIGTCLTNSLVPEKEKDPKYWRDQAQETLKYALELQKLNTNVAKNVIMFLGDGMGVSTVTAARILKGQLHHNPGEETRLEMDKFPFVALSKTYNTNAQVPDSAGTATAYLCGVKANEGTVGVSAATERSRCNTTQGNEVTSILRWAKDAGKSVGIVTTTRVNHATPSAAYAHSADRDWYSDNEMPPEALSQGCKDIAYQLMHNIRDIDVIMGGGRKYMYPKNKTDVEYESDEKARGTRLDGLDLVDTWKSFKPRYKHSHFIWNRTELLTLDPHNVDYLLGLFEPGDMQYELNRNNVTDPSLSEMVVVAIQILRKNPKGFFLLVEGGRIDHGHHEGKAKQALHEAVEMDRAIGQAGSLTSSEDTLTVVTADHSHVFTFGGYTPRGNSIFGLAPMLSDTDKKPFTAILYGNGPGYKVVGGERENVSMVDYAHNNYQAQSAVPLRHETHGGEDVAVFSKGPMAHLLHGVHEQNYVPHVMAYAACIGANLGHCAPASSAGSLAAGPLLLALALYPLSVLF
Description: TNAP enzyme inhibition by screening hits, dose response, selectivity assay for mouse IAP inhibitor project, biochemical, human TNAP, uHTS hits (AID 488906). Type of test: functional.

Test [23] addresses T5, Calpain-2 catalytic subunit (Sus scrofa, UniProt P43367).
T5 sequence (P43367 whole entry): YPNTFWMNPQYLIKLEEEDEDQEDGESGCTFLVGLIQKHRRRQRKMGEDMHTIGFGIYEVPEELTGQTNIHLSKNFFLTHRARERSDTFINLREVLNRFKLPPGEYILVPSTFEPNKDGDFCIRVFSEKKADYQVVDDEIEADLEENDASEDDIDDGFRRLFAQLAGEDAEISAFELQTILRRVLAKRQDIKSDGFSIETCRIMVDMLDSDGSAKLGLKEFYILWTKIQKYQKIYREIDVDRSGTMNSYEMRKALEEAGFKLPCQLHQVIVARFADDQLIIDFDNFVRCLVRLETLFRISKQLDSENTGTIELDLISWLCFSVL
Description: m-calpain protease blockers, concentration series – biochemical, fluorogenic peptide substrate, dose response (AID 1420). The test is classed as functional.

For test [24], the target named is Voltage-dependent T-type calcium channel subunit alpha-1H (Homo sapiens, UniProt O95180). Briefly: inhibition of CACNA1H calcium flux – cell-based, SynthLib3 library, HEK293 Cav3.2, fluorescence (AID 493041). The test is classed as functional.
Test [25] in a line: Trypanosoma cruzi growth suppression in host cells – NIH3T3 host cells, beta-gal luminescence, confirmation (AID 2044).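 Further: intracellular parasites grown in NIH/3T3 mouse fibroblasts as host cells; luminescent beta-galactosidase reporter signal from transgenic T. cruzi replicating inside host cells; inhibitors lower the luminescence signal.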 Type of test: functional, cell-based.
Test [26] in a line: NIH3T3 cell viability loss – ATP luminescence, mouse fibroblasts, counter-screen, dose response (AID 2010).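 Further: cells exposed to compound for about 90 hours before reading.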 The test is classed as functional, cell-based.
In another test the target is Beta-galactosidase (Escherichia coli, UniProt Q8VNN2). Briefly: detection-enzyme interference by beta-gal modulators – biochemical, E. coli enzyme, set 3, artefact control for CCR6 antagonist project, dose response (AID 504712). The test is classed as functional.
A further test deals with Apelin receptor (Homo sapiens, UniProt P35414). Description: apelin receptor antagonists, arrestin read-out – cell-based, luminescent, enzyme-fragment complementation, selectivity assay for CCR6 antagonist project, SAR follow-up (AID 588359). Type of test: functional.

Calls of active or inactive are those of the source.

Intestinal-type alkaline phosphatase (Mus musculus, UniProt P24822), sequence (P24822 whole entry): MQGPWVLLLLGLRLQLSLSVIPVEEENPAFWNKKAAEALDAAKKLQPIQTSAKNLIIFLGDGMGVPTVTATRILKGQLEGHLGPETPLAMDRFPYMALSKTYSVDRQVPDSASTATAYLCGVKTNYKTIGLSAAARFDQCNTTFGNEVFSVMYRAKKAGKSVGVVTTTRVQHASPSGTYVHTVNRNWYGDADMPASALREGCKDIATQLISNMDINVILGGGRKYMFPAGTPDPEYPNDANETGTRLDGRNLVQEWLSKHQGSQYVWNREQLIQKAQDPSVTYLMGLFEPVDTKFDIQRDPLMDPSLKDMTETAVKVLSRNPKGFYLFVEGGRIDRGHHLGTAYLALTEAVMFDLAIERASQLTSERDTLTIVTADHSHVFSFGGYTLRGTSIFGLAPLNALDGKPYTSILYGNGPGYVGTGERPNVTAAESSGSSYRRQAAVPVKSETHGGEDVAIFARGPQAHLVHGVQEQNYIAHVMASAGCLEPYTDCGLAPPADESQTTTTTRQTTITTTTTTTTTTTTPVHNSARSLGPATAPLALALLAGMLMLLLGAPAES
Apelin receptor, sequence (P35414 whole entry, the tested form may be a part): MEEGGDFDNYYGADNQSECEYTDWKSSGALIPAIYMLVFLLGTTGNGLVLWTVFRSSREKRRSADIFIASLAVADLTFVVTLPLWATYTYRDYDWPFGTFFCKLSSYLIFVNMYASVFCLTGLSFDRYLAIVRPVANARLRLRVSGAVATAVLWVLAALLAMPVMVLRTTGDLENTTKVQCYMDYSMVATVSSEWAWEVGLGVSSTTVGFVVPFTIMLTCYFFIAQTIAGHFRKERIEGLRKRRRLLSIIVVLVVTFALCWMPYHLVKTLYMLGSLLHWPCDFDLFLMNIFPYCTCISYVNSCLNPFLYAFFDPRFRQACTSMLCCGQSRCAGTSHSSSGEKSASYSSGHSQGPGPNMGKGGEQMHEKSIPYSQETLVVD
Intestinal-type alkaline phosphatase (Homo sapiens, UniProt P09923), sequence (P09923 whole entry): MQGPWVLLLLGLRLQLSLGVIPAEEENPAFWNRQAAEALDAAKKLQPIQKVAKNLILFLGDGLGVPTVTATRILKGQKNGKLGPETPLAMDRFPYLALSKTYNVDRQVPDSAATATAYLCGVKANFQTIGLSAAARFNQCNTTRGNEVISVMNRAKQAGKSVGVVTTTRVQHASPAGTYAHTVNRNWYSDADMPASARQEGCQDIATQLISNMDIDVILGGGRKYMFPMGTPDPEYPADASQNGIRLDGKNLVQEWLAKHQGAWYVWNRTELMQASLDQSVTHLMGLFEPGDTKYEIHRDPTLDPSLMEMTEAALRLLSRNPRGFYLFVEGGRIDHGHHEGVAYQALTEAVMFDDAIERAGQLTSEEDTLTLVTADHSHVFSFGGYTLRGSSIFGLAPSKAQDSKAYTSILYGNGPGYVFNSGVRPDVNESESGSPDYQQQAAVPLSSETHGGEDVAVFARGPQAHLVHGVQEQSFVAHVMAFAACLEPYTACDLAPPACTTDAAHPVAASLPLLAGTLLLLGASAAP
Voltage-dependent T-type calcium channel subunit alpha-1H, sequence (O95180 whole entry): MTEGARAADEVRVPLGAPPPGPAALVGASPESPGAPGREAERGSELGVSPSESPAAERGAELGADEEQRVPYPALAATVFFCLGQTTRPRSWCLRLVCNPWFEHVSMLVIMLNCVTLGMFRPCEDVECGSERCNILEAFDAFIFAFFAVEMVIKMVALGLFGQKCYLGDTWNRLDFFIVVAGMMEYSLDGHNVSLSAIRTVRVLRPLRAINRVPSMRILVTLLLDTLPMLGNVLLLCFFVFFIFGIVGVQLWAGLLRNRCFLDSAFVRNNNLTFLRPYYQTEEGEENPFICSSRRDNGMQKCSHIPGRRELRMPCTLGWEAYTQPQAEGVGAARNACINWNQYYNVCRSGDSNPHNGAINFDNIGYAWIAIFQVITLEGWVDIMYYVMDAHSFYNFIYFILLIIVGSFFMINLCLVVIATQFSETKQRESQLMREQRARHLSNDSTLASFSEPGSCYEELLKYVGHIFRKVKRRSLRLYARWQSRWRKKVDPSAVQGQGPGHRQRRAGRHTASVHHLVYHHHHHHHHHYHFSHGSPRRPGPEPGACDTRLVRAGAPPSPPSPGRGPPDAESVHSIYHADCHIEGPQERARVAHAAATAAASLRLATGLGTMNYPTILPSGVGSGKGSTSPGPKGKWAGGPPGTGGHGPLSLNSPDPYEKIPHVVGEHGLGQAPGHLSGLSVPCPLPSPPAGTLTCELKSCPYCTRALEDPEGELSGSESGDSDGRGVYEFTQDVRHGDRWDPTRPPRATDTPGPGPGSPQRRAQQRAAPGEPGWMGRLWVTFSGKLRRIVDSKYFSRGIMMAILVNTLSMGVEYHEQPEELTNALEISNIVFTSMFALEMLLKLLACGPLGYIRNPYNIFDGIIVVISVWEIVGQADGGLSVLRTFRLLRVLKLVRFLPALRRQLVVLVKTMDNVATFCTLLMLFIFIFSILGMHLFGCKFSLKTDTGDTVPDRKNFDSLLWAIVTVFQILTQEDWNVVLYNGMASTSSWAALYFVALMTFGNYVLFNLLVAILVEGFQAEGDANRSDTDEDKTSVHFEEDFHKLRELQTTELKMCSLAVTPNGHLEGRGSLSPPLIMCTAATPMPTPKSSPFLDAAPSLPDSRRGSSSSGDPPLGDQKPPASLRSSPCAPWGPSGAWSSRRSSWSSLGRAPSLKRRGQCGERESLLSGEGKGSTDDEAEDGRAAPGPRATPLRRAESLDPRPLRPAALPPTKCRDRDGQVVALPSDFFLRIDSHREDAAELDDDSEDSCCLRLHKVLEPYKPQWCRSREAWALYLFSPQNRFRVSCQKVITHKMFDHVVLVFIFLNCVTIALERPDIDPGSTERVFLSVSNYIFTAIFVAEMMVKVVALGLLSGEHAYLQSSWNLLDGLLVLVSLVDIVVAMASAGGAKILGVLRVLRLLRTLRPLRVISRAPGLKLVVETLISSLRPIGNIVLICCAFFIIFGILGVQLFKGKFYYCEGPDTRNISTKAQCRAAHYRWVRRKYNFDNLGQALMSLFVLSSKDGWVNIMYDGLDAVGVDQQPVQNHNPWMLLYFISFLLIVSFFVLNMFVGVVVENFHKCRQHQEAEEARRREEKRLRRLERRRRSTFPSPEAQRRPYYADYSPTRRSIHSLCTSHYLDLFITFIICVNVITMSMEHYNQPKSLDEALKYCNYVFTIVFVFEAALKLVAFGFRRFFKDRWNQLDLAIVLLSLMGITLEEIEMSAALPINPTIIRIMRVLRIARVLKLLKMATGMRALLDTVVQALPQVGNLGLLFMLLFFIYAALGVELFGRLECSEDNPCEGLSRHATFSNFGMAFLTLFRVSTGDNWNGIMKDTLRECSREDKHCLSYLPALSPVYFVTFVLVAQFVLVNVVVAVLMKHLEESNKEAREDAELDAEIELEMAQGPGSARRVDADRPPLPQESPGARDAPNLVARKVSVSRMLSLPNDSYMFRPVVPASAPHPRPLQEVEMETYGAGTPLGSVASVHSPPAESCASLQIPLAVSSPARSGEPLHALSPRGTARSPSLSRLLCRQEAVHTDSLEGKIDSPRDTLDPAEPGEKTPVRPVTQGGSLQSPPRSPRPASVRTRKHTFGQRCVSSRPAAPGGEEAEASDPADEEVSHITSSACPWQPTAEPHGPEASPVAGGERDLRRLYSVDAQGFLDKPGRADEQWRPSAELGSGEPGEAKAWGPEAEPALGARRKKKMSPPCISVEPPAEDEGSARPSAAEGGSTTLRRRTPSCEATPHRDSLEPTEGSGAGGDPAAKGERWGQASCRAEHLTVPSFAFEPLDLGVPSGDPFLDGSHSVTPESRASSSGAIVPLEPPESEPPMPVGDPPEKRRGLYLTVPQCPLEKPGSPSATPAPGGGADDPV
Sphingosine 1-phosphate receptor 2, sequence (O95136 whole entry): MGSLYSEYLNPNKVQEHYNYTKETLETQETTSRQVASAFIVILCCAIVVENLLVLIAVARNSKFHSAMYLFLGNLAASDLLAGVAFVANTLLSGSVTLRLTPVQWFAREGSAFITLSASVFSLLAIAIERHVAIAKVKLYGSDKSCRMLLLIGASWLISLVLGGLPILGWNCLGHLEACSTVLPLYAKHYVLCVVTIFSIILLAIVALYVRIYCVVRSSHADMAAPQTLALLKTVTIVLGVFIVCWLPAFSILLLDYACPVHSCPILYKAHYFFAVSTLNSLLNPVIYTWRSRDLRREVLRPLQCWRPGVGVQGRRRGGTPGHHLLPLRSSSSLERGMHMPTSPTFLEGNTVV
Sphingosine 1-phosphate receptor 1, sequence (P21453 whole entry): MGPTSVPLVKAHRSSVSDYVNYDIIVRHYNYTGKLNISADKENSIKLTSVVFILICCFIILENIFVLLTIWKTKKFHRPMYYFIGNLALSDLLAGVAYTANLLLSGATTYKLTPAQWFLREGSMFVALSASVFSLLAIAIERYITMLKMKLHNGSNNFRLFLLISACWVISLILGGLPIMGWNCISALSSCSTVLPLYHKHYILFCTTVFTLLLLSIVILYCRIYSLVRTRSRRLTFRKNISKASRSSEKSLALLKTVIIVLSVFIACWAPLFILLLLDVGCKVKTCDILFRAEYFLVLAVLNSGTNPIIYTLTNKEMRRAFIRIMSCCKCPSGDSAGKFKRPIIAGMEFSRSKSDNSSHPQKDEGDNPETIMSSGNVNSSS
Neurotensin receptor type 1, sequence (P30989 whole entry): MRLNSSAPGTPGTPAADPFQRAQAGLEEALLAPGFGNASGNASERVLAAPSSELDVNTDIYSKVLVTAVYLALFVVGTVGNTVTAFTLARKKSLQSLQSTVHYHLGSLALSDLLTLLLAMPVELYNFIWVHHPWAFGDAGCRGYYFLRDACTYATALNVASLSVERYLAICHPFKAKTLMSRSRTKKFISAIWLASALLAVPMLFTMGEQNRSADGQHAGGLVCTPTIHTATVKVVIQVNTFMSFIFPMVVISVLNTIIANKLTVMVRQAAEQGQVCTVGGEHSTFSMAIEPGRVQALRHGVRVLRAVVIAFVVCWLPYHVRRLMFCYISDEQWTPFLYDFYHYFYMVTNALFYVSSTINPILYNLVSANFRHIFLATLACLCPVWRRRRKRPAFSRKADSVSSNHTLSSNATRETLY

By IC50 is commonly meant the point on the concentration scale where inhibition reaches its midpoint. With `CSc1ccc(-c2nc(CSCC(=O)NC3CC3)c(C)o2)cc1`, the IC50 was > 80 µM (inactive) in the test with Jurkat [1], > 80 µM (inactive) in test [2], 49.7 µM (inactive) in the test with HEK293 [3] and > 80 µM (inactive) with HEK293 [4].
The term AC50 denotes the concentration at which the activity in the assay is half-maximal. `COc1cc(-c2noc(C)c2C#Cc2ccc(N)cc2)cc(OC)c1OC`: the half-maximal activity concentration (AC50) in test [5] was 0.219 µM (active); in test [6], 8 µM (inconclusive).
Usually EC50 stands for the concentration giving half of the maximal effect. Regarding `Cc1ccc(NC(=O)C2CC3CCC2C3)c(C)c1` (configuration not stated), the EC50 in [7] is 0.22 µM (active).
For `C=CCO/C(O)=C1\C(C)=NC(SCC(=O)Nc2nccs2)=C(C#N)C1c1ccc(Cl)cc1` (configuration not stated), the EC50 in the test with HEK293 [8] and with HEK293 [9] was > 59.6 µM (inactive) in each case.
In general, CC50 refers to the concentration that lowers cell viability or growth by half. On to `NS(=O)(=O)c1ccc(N2N=C(c3ccc(Br)cc3)CC2c2ccc(F)cc2)cc1` (configuration not stated), for which the EC50 in test [10] is 2.2 µM (active); at Streptokinase A, > 150 µM (not active); with Streptococcus, 5.44 µM (active); in test [11], 3.33 µM (active); in test [12], 25 µM (inactive); in test [13], 15.4 µM (active). Further, the figures for the EC50 in test [14], in [15] and in test [16] were 0.877 µM (active), 14.1 µM (active) and 2.62 µM (active), respectively. Also, the CC50 in the test on Vero was 17.1 µM (active); in test [17], > 40 µM (active). Moreover, the half-inhibitory concentration (IC50) at Protein Tat is > 100 µM (active).
As for `O=C(NCCNCCO)C1(C(F)(F)F)C/C(=C\CCO)CCCO1` (configuration not stated), the IC50 (in the test on Jurkat [18]; in test [19]) was > 80 µM (inactive) each time.
Regarding `O=C(Nc1ccc(Cl)cc1)NC1CCCCC1Cc1ccco1` (configuration not stated), the IC50 in [20] is 12.2 µM (active); in test [21], > 100 µM (inactive); in [22], > 100 µM (inactive); in test [23], 2.69 µM (not active).
As to `O=C(NC1CCC2CN(CC3CCCC3)CC21)c1cc(Cl)cc(Cl)c1` (configuration not stated), in [24], the EC50 is 6.4 µM (active).
As to `O=C(CSc1cccc2cccnc12)Nc1ccc(S(=O)(=O)N2CCOCC2)cc1`, the EC50 in test [25] was 1.58 µM (active); in test [26], 7.88 µM (active). Further, the values for the IC50 at Beta-galactosidase and on Apelin receptor were > 66.6 µM (inactive) and 11 µM (active), respectively.
